Structures can show the parent of a compound that is named as a salt.
Legend:
[1] = test system: MAO in the liver (substrate 5-HT); test: MAO inhibition ex vivo in liver of rats, substrate 5-HT; parameters: species or system male albino rats (Fu-SPF); settings: rat, 100 μmol/kg orally, 2 hrs., given in percentage of the control values
Protocol: (§1) The MAO inhibiting activity of the compounds in accordance with the invention can be determined in vitro or ex vivo using standard methods. The preparations to be tested were investigated in the tests described hereinafter, which were based on the methods of R. J. Wurtmann and J. A. Axelrod [Biochem. Pharmac. 12, 1439-41 (1963).
(§2) The compounds to be tested are investigated for the inhibition of MAO in the brain and liver of male albino rats (Fu-SPF, 100-140 g. The test compounds are administered orally as a solution or suspension in water in a dosage of 100 μmol per kilogram body weight. After 2 hrs. the animals are narcotized and decapitated. The brain (without cerebellum) and a portion of the liver are dissected out and submitted analogously to the above-described procedure for the determination of the MAO inhibiting activity, whereby the amount of enzyme used is 20 μl of a 1:20 homogenate in the case of brain and 20 μl of a 1:80 homogenate in the case of liver. The activity of the compounds is determined from a comparison of the β-values with the values for control animals treated with vehicle and is given in percentage of the control values.

[2] = test system: MAO in the liver (substrate PEA); test: MAO inhibition ex vivo in liver of rats, substrate PEA; parameters: species or system male albino rats (Fu-SPF); settings: rat, 100 μmol/kg orally, 2 hrs., given in percentage of the control values
Protocol: as §1, §2

[3] = test system: MAO in the brain (substrate 5-HT); test: MAO inhibition ex vivo in brain of rats, substrate 5-HT; parameters: species or system male albino rats (Fu-SPF); settings: rat, 100 μmol/kg orally, 2 hrs., given in percentage of the control values
Protocol: as §1, §2

[4] = test system: MAO in the brain (substrate PEA); test: MAO inhibition ex vivo in brain of rats, substrate PEA; parameters: species or system male albino rats (Fu-SPF); settings: rat, 100 μmol/kg orally, 2 hrs., given in percentage of the control values
Protocol: as §1, §2

[5] = molecular target: T1, MAO (substrate 5-HT) (Rattus norvegicus, UniProt P21396); test: MAO inhibition in vitro, rat brain homogenate, substrate 14C-labelled serotonin (5-HT); format: biochemical; settings: substrate 5-HT 2×10^-4 M, 37° C.
T1 construct: 20 μl of rat brain homogenate; from tissue; host or cells: rat brain homogenate
T1 sequence (P21396 1-526): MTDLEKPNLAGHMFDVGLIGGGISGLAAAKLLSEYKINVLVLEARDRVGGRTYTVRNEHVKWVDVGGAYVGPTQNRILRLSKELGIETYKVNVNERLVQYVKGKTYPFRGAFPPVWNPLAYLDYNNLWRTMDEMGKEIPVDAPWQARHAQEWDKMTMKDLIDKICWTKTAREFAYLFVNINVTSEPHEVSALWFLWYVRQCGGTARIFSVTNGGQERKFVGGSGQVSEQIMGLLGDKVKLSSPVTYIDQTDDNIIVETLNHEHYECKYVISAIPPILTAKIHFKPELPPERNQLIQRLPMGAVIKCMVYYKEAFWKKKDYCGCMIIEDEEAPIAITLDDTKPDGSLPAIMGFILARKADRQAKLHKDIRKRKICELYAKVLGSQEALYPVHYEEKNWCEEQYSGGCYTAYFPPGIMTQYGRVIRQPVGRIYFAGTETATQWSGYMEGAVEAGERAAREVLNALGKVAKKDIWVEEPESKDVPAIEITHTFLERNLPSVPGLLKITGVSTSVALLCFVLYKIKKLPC
Protocol: as §1
(§3) Isolated rat brains are homogenized in 0.1 molar potassium phosphate buffer (pH 7.4) in the ratio 1:4 (weight/volume), the homogenate is diluted with the same buffer in the ratio 1:5 (volume/volume) and stored at -20° C. A mixture of the following composition was used for the incubation:
(§4) 100 μl of 1M phosphate buffer (pH 6.7);
(§5) 100 μl of solution of the substance to be tested in water or in 10% aqueous dimethyl sulphoxide;
(§6) 20 μl of rat brain homogenate; and as the substrate
(§7) 80 μl of ^14 C-labelled serotonin (5-HT) or ^14 C-labelled phenylethylamine (PEA), the radioactive concentration of which amounts to 100,000 decay per minute and which is used in a final concentration of 2×10^-4 M and, respectively, 2×10^-5 M.
(§8) A pre-incubation at 37° C. is effected for 30 minutes prior to the addition of the substrate. The incubation (in the presence of the substrate) is likewise effected at 37° C. and lasts for 10 minutes. The reaction is stopped by the addition of 200 μl of 2N hydrochloric acid.
(§9) In order to extract the desaminated product, the mixture is shaken for 10 minutes with 5 ml of diethyl ether or with 5 ml of n-heptane depending on whether 5-HT or PEA is used as the substrate, whereupon the mixture is centrifuged, the aqueous phase is frozen in a dry-ice bath, the organic phase is transferred into a counting glass and the radioactive concentration is determined in a β-counter.
(§10) The activity of the MAO in comparison to the control homogenates (without substance to be tested) is obtained on the basis of the β-values and the IC50 is defined as that concentration of a substance to be tested which reduces the activity of the MAO upon the substrate 5-HT or PEA by 50%.

[6] = molecular target: T2, MAO (substrate PEA) (Rattus norvegicus, UniProt P19643); test: MAO inhibition in vitro, rat brain homogenate, substrate 14C-labelled phenylethylamine (PEA); format: biochemical; settings: substrate PEA 2×10^-5 M, 37° C.
T2 construct: 20 μl of rat brain homogenate; from tissue; host or cells: rat brain homogenate
T2 sequence (P19643 1-520): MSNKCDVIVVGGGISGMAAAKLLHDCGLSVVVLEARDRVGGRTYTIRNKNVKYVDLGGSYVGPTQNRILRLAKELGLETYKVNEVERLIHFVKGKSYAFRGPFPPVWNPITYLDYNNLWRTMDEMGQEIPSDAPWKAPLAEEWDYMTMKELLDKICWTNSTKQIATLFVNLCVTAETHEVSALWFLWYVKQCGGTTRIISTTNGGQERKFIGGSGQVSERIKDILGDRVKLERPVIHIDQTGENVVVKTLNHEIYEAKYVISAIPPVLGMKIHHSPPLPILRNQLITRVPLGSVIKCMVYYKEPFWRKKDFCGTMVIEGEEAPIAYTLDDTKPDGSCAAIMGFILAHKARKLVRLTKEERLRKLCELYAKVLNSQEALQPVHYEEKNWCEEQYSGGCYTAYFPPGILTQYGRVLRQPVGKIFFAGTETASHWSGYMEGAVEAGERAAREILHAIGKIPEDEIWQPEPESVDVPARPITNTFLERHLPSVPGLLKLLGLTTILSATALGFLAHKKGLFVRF
Protocol: as §1, §3, §4, §5, §6, §7, §8, §9, §10

[7] = Preliminary oral toxicity testing in mice; format: in vivo; settings: one mouse per dosage; for LLD (lowest lethal dose): death within 24 hrs.; for MTD: in vivo, survival, read-out: HTD (highest tolerated dose)
Text: The toxicity of the compounds in accordance with the invention is investigated by orally administering different dosages of the dissolved or suspended compounds to mice. One mouse is used per dosage. The dosage is halved stepwise so that a dosage range of about 1.5 to the power of ten is covered. The results of this preliminary toxicity testing are reproduced in the form of two administered dosages.
The higher dosage (LLD=lowest lethal dose) led to death within 24 hrs., the lower dosage (HTD=highest tolerated dose) was survival. (Dosage data in miligram per kilogram body weight, administered orally).

SMILES | MAO inhibition, Liver, 5HT [1] [%] | Remaining liver MAO activity (PEA), % of control [2] [%] | Remaining brain MAO activity, 5-HT (% of control) [3] [%] | Remaining brain MAO activity (PEA), % of control [4] [%] | IC50 [5] [µM] | IC50 [6] [µM] | LLD (lowest lethal dose) [7] | MTD [7] [mg/kg]
CC1=NCCn2c1ccc2-c1ccc(O[C@@H]2C[C@H]3CC[C@@H]2C3)cc1 (relative stereo) [3,4-Dihydro-1-methyl-6-[p-(2-exonorbornyloxy)phenyl]pyrrolo[1,2-a]pyrazine] | 51 | 10 | 45 | 11 | 0.02 | 0.003 | – | –
CC1=NCCn2c1ccc2-c1ccccc1 [3,4-Dihydro-1-methyl-6-phenylpyrrolo[1,2-a]pyrazine] | – | – | – | – | 0.3 | > 1 | – | –
CC1=NCCn2cc(-c3ccccc3)cc21 [3,4-Dihydro-1-methyl-7-phenylpyrrolo[1,2-a]pyrazine] | – | – | – | – | 0.09 | > 1 | – | –
COc1ccc(-c2ccc3n2CCN=C3C)cc1 [3,4-Dihydro-6-(p-methoxyphenyl)-1-methylpyrrolo[1,2-a]pyrazine] | – | – | – | – | 0.05 | > 1 | – | –
CC1=NCCn2c1cc1c2-c2ccc(Cl)cc2CC1 [3-Chloro-5,6,10,11-tetrahydro-8-methylbenzo[g]pyrazino[1,2-a]indole] | 20 | 96 | 42 | 93 | 0.01 | > 1 | – | –
CC1=NCCn2c1cc1c2-c2ccc(C3CCCCC3)cc2CC1 [3-cyclohexyl-5,6,10,11-tetrahydro-8-methylbenzo[g]pyrazino[1,2-a]indole] | – | – | – | – | 0.002 | 0.16 | – | –
CC1=NCCn2c1cc1c2-c2ccc(OC3CCCC3)cc2CC1 [3-cyclopentyloxy-5,6,10,11-tetrahydro-8-methylbenzo[g]pyrazino[1,2-a]indole] | 8 | 50 | 13 | 45 | 0.001 | 0.007 | – | –
CC1NCCn2c1cc1c2-c2ccccc2CC1 (centres unmarked) [5,6,8,9,10,11-Hexahydro-8-methylbenzo[g]pyrazino[1,2-a]indole] | 55 | 78 | 69 | 95 | 0.09 | > 1 | – | –
COc1ccc2c(c1)CCc1cc3n(c1-2)CCN=C3C [5,6,10,11-Tetrahydro-3-methoxy-8-methyl-benzo[g]pyrazino[1,2-a]indole] | 5 | 87 | 28 | 86 | 0.0008 | > 1 | – | –
CC1=NCCn2c1cc1c2-c2ccccc2CC1 [5,6,10,11-Tetrahydro-8-methylbenzo[g]pyrazino[1,2-a]indole] | 47 | 81 | 48 | 87 | 0.03 | > 1 | – | –
CC1=NCCn2c1ccc2-c1ccc(Cl)cc1 [6-(p-Chlorophenyl)-3,4-dihydro-1-methylpyrrolo[1,2-a]pyrazine] | – | – | – | – | 0.35 | 10 | – | –
CC1=NCCn2c1ccc2-c1ccc(Cl)cc1.O=C(O)/C=C/C(=O)O [Example 2, 6-(p-chloro-phenyl)-3,4-dihydro-1-methylpyrrolo[1,2-a]pyrazine fumarate (1:1)] | – | – | – | – | – | – | 625 miligram per kilogram body wei | 312
CC1=NCCn2c1ccc2-c1ccccc1.O=C(O)/C=C/C(=O)O [Example 9, 3,4-dihydro-1-methyl-6-phenylpyrrolo[1,2-a]pyrazine fumarate (1:1)] | – | – | – | – | – | – | 625 miligram per kilogram body wei | 312
CC1=NCCn2c1cc1c2-c2ccccc2CC1 [Example 10, 5,6,10,11-tetrahydro-8-methyl-benzo[g]pyrazino[1,2-a]indole fumarate (2:3)] | – | – | – | – | – | – | 312 miligram per kilogram body wei | 156
CC1=NCCn2c1cc1c2-c2ccc(Cl)cc2CC1.O=C(O)/C=C/C(=O)O [Example 12, 3-chloro-5,6,10,11-tetrahydro-8-methylbenzo[g]pyrazino[1,2-a]indole fumarate (1:1)] | – | – | – | – | – | – | 250 miligram per kilogram body wei | 125
CC1NCCn2c1cc1c2-c2ccccc2CC1.O=C(O)/C=C/C(=O)O (centres unmarked) [Example 29, 5,6,8,9,10,11-hexahydro-8-methylbenzo[g]pyrazino[1,2-a]indole fumarate (1:1)] | – | – | – | – | – | – | 625 miligram per kilogram body wei | 312
CC1NCCn2c1cc1c2-c2ccc(Cl)cc2CC1.O=C(O)/C=C/C(=O)O (centres unmarked) [Example 31, 3-chloro-5,6,8,9,10,11-hexahydro-8-methylbenzo[g]pyrazino[1,2-a]indole fumarate (1:1)] | – | – | – | – | – | – | 1000 miligram per kilogram body wei | 500
CC1=NCCn2c1ccc2-c1ccc(OC2CCCC2)cc1.O=C(O)/C=C/C(=O)O [Example 37, 6-[p-(cyclopentyloxy)phenyl]-3,4-dihydro-1-methylpyrrolo[1,2-a]pyrazine fumarate (1:1)] | – | – | – | – | – | – | 625 miligram per kilogram body wei | 312
CC1=NCCn2c1cc1c2-c2ccc(OC3CCCC3)cc2CC1.O=C(O)/C=C/C(=O)O [Example 53, 3-cyclopentyloxy-5,6,10,11-tetrahydro-8-methylbenzo[g]pyrazino[1,2-a]indole fumarate (1:1)] | – | – | – | – | – | – | 500 miligram per kilogram body wei | 250

— US5292732A, “Pyrrolopyrazine derivatives” (Hoffmann-La Roche Inc., priority 1991, dated 1994)
